In one assay the test system is GBM-6 neurospheres. The experiment in a line: Collagen cell invasion assay. The class given is cell-based, human. Conditions: BTP-7 50 µM, n = 3.
Another assay concerns GBM-6 cells. In words: CellTitre-Glo cell viability assay, GBM-6. The class given is cell-based, human. The conditions noted are these: BTP-7 50 µM, 48 hrs, nwell = 3.
Assay [1] has as its target T1, recombinant dg-Bcan protein (deglycosylated recombinant human brevican) (Homo sapiens, UniProt Q96GW7).
T1 sequence (Q96GW7 23-911): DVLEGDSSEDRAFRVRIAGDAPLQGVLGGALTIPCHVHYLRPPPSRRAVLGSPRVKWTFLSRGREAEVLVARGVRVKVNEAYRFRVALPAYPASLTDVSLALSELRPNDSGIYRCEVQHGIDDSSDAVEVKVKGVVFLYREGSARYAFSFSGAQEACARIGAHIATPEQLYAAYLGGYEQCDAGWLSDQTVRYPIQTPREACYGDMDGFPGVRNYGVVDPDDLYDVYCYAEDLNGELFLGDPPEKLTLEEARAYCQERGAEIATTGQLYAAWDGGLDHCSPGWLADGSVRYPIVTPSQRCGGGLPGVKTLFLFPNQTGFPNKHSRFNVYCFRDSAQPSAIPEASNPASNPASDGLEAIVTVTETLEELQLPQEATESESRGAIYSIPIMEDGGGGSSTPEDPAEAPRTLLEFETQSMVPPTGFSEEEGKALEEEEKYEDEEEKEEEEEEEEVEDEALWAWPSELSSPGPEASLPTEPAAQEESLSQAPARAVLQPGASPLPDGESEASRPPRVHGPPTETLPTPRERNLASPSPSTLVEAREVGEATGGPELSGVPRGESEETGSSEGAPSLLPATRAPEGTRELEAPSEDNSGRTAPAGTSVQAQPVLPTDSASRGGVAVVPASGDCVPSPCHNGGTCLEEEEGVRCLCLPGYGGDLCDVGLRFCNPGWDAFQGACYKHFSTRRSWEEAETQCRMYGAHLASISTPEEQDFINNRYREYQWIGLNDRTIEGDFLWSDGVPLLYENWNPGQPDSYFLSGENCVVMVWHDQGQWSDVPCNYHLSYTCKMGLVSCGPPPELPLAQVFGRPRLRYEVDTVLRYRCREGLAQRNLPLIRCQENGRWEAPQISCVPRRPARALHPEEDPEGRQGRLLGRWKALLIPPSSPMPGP
The experiment in a line: Octet binding kinetic analysis. The conditions noted are these: for Rmax (maximal response in response unit): Octet steady state analysis, one site specific binding fit. For orientation: BLI is a label-free optical method that tracks binding on a fibre tip over time.

Non-standard residues stand in square brackets, D forms with d. Residues, ends and D or L forms follow the SMILES beside them. *: point of attachment. FITC = O=C1OC2(c3ccc(O)cc3Oc3cc(O)ccc32)c2ccc(NC(=S)*)cc21; Ahx = NCCCCCC(=O)O

Take `CC(C)[C@@H](NC(=O)[C@@H](Cc1c[nH]cn1)NC(=O)CNC(=O)[C@@H](Cc1c[nH]c2ccccc12)NC(=O)[C@@H](CCCCN)NC(=O)[C@H](N)[C@H](C)O)C(=O)N[C@H](CC(N)=O)C(=O)N[C@H](CCCCN)C(N)=O` [BTP-7]: the “effect on GBM-6 invasion in collagen” value in the assay on GBM-6 neurospheres is “not affected”. For the same molecule, in the assay with GBM-6 cells, the “effect on GBM-6 proliferation” value was “not affected”. Besides, in assay [1], the “Rmax (maximal response in response unit)” value is given as 0.307.

On to `CC[C@@H](C)[C@@H](NC(=O)[C@@H](C)NC(=O)[C@@H](CCCNC(=N)N)NC(=O)[C@@H](CCC(N)=O)NC(=O)[C@@H](CCCNC(=N)N)NC(=O)[C@@H](CCCNC(=N)N)NC(=O)[C@@H](CC(=O)O)NC(=O)[C@@H](C)N)C(N)=O` [BTP-9] (H-[dA][dD][dR][dR][dQ][dR][dA][dI]-NH2; N-terminus and C-terminus assumed), for which, in assay [1], the “Rmax (maximal response in response unit)” value turned out to be 0.338.

As a reminder, the Kd is the concentration at which binding is half-saturated. For `CC(C)[C@@H](NC(=O)[C@@H](Cc1c[nH]cn1)NC(=O)CNC(=O)[C@@H](Cc1c[nH]c2ccccc12)NC(=O)[C@@H](CCCCN)NC(=O)[C@H](N)[C@H](C)O)C(=O)N[C@H](CC(N)=O)C(=O)N[C@H](CCCCN)C(=O)NCCCCCC(=O)N[C@@H](CCCCNC(=S)Nc1ccc2c(c1)C(=O)OC21c2ccc(O)cc2Oc2cc(O)ccc21)C(N)=O` [Fluorescein-conjugated BTP-7] (H-[dT][dK][dW]G[dH][dV][dN][dK][Ahx]K(FITC)-NH2), the Kd in assay [1] was 3.8 µM.

The values above are taken from article doi:10.1101/2020.05.21.106633v1 (bioRxiv, 2020).
